Source: patent publication US8124788B2, “Spirocyclic cyclohexane compounds with analgesic activity” (Gruenenthal GmbH, priority 2006, dated 2012)
pKi: −log10 of the molar value. Counter-ions that a name gives are not always drawn.

Legend:
[1] = target: T1, human μ opiate receptor (Homo sapiens, UniProt P35372); experiment: Affinity for the human μ opiate receptor ([3H]-naloxone displacement, CHO-K1 membrane preparation, SPA); type: binding; conditions: for inhibition at 1 µM / μ opioid receptor [1 μM], % inhibition: 1 μM test substance, displacement of [3H]-naloxone; for inhibition at 1 µM: read-out: μ opioid receptor [1 μM], % inhibition; for pKi: Cheng-Prusoff conversion from IC50, read-out: μ opioid receptor, Ki
T1 construct: purchased PerkinElmer Life Sciences, Zaventem, Belgium RB-HOM; host or cells: CHO-K1 cells (recombinant expression)
T1 sequence (P35372 whole entry): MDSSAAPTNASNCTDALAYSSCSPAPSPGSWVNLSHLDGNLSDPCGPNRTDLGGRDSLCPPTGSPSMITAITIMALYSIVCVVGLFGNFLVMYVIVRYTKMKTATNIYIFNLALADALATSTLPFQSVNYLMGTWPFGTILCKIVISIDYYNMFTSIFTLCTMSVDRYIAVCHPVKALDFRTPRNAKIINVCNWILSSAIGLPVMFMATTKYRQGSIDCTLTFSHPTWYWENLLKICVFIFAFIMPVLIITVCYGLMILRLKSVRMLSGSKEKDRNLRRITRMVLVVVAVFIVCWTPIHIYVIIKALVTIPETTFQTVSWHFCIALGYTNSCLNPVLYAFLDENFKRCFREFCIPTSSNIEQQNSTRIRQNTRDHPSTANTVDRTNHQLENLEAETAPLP
Procedure, shortened: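 CHO-K1 membranes expressing human μ receptor (15-40 μg protein/250 μl) were incubated 90 min at room temperature with 1 nmol/l [³H]-naloxone and WGA-SPA beads in 50 mmol/l Tris-HCl with 0.06% BSA; 100 μmol/l naloxone defined nonspecific binding. Percent displacement measured at 1 μmol/l; IC50 converted to Ki via Cheng-Prusoff.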

[2] = target: T2, Serotonin reuptake (Rattus norvegicus, UniProt P31652); experiment: Inhibition of serotonin (5HT) reuptake in rat brain synaptosomes; type: biochemical
T2 construct: synaptosomes are freshly isolated from areas of the rat brain; from tissue
T2 sequence (P31652 whole entry): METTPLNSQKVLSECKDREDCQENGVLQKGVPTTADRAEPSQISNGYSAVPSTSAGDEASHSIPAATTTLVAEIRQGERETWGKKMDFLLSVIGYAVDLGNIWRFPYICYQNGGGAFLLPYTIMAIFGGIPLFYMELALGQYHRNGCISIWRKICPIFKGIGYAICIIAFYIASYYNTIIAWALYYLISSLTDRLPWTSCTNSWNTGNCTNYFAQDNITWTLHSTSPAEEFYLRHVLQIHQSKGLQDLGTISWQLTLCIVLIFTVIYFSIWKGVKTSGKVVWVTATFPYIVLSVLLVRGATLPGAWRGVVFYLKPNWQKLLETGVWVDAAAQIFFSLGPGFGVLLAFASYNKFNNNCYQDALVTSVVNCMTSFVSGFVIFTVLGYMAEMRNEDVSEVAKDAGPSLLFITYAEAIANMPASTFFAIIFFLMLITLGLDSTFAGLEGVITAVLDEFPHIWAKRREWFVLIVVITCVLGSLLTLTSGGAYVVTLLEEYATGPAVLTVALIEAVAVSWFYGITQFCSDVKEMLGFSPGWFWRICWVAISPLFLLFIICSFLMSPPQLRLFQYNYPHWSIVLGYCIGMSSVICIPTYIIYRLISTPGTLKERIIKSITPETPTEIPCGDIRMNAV
Procedure: (§1) In order to be able to carry out these in vitro studies, synaptosomes are freshly isolated from areas of the rat brain. In each case a so-called “P2” fraction prepared in accordance with the instruction of Gray and Whittaker (E. G. Gray and V. P. Whittaker (1962) J. Anat. 76, 79-88) is prepared. For the NA uptake, these vesicular particles are isolated from the hypothalamus of male rat brains.
(§2) A detailed description of the method can be found in the literature (M. Ch. Frink, H.-H. Hennies, W. Englberger, M. Haurand and B. Wilffert (1996) Arzneim.-Forsch./Drug Res. 46 (III), 11, 1029-1036).

[3] = target: T3, Noradrenaline reuptake (Rattus norvegicus, UniProt Q63380); experiment: Inhibition of noradrenaline (NA) reuptake in rat brain synaptosomes; type: biochemical; conditions: synaptosomes from rat hypothalamus
T3 construct: synaptosomes are freshly isolated from areas of the rat brain; from tissue; host or cells: P2 synaptosome fraction from the hypothalamus of male rat brains
T3 sequence (Q63380 1-617): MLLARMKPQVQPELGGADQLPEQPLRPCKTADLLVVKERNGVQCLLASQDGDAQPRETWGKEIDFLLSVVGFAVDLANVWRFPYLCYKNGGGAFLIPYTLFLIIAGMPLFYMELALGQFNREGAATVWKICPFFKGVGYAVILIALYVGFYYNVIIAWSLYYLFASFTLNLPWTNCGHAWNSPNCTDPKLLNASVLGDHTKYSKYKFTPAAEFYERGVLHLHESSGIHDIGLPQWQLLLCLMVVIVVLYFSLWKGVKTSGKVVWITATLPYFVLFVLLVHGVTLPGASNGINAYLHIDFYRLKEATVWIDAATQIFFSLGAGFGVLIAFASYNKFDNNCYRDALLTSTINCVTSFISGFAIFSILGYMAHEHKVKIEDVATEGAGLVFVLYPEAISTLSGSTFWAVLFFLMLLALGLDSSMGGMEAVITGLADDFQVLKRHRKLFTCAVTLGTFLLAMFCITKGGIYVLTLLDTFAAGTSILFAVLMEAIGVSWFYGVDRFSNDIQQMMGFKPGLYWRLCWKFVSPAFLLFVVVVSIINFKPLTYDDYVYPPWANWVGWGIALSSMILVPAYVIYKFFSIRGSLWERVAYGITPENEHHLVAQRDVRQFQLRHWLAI
Procedure: as §1, §2

[4] = tested on: phenylquinone-induced writhing in mice; experiment: Phenylquinone writhing; type: in vivo; conditions: 10 mg/kg intravenously, male NMRI mice
Procedure: The analgesic activity was investigated in the phenylquinone-induced writhing in mice (modified in accordance with I. C. Hendershot und J. Forsaith (1959) J. Pharmacol. Exp. Ther. 125, 237-240), Male NMRI mice weighing from 25 to 30 g were used for this. Groups of 10 animals per substance dose received 0.3 ml/mouse of a 0.02% strength aqueous solution of phenylquinone (phenylbenzoquinone, Sigma, Deisenhofen; preparation of the solution with the addition of 5% ethanol and storage in a water bath at 45° C.) administered intraperitoneally 10 minutes after intravenous administration of the test substances. The animals were placed individually in observation cages. The number of pain-induced stretching movements (so-called writhing reactions=straightening of the body with stretching of the rear extremities) was counted by means of a push-button counter 5 to 20 minutes after the administration of phenylquinone. Animals which receive only 5% strength Cremophor solution were also run as a control. All the substances were tested in the standard dosage of 10 mg/kg. The percentage inhibition (% inhibition) of the writhing reaction by a substance was calculated according to the following formula: […]

Row | Compound | inhibition at 1 µM [1] | pKi [1] | inhibition at 10 µM [2] | inhibition at 10 µM [3] | μ opioid receptor [1 μM], % inhibition [1] | % inhibition of the writhing reaction (dosage in mg/kg intravenously) [4] | Serotonin reuptake, % inhibition [10 μM] [2] | Noradrenaline reuptake, % inhibition [10 μM] [3] | melting point
1 | CN(C)C(c1ccc(F)cc1)C1CCC2(CC1)OCCc1c2[nH]c2ccc(F)cc12 (centres unmarked) [Compound 35, 6-Fluoro-1,1-[3-(dimethylamino-(4-fluorophenyl)-methyl) -pentamethylene]-1,3,4,9-tetrahydropyrano[3,4-b]indole] | 98% | 7.17 | 55% | 50% |  |  |  |  | 
2 | CN(C)C(CCc1ccccc1)C1CCC2(CC1)OCCc1c2[nH]c2ccccc12 (centres unmarked) [Compound 28, 1,1-[3-(Dimethylamino-(phenylethyl)-methyl)-pentamethylene]-1,3,4,9-tetrahydropyrano[3,4-b]indole] | 92% | 6.96 | 57% | 52% |  |  |  |  | 
3 | CN(C)C(c1ccc(F)cc1)C1CCC2(CC1)NCCc1c2[nH]c2ccccc12 (centres unmarked) [Compound 17, 1,1-[3-(Dimethylamino-(4-fluorophenyl)methyl)-pentamethylene]-3,4-dihydro-1H-2,9-diazafluorene] |  |  |  |  | 46% | 52 (10) % | 83% |  | 
4 | CN(C)C(c1ccc(Cl)cc1)C1CCC2(CC1)OCCc1c2[nH]c2ccccc12 (centres unmarked) [Compound 30, 1,1-[3-(Dimethylamino-(4-chlorophenyl)-methyl)-pentamethylene]-1,3,4,9-tetrahydro-pyrano[3,4-b]indole] | 84% | 6.77 | 56% |  |  | 45 (10) % |  |  | 
5 | CN(C)C(c1cccs1)C1CCC2(CC1)NCCc1c2[nH]c2ccccc12 (centres unmarked) [Compound 21, 1,1-[3-(Dimethylamino-(thiophen-2-yl)-methyl)-pentamethylene]-3,4-dihydro-1H-2,9-diazafluorene] |  |  |  |  | 62% |  | 72% | 50% | 
6 | CN(C)C(c1ccccc1)C1CCC2(CC1)NCCc1c2[nH]c2ccccc12 (centres unmarked) [Compound 19, 1,1-[3-(Dimethylamino-phenylmethyl)-pentamethylene]-3,4-dihydro-1H-2,9-diazafluorene] | 81% | 6.74 | 91% | 65% |  |  |  |  | 182 to 184 °C
7 | CN(C)C(c1cccc(F)c1)C1CCC2(CC1)OCCc1c2[nH]c2ccccc12 (centres unmarked) [Compound 26, 1,1-[3-(Dimethylamino-(3-fluorophenyl)-methyl)-pentamethylene]-1,3,4,9-tetrahydro-pyrano[3,4-b]indole Citrate] | 94% | 7.48 | 59% | 49% |  |  |  |  | 
8 | Cc1ccc2[nH]c3c(c2c1)CC(C)OC31CCC(C(c2ccccc2)N(C)C)CC1 (centres unmarked) (as salt: citrate) [Compound 42, 3,6-Dimethyl-1,1-[3-(dimethylamino-(phenyl)-methyl)-pentamethylene]-1,3,4,9-tetrahydropyrano[3,4-b]indole Citrate] |  |  |  |  |  |  |  |  | 245 to 250 °C
9 | Cc1ccc2[nH]c3c(c2c1)CC(C)OC31CCC(C(c2cccc(F)c2)N(C)C)CC1 (centres unmarked) [Compound 41, 3,6-Dimethyl-1,1-[3-(dimethylamino-(3-fluorophenyl)-methyl) -pentamethylene]-1,3,4,9-tetrahydropyrano[3,4-b]indole] | 88% | 6.52 |  |  |  | 40 (10) % |  |  | 
10 | CN(C)C(c1cccs1)C1CCC2(CC1)OCCc1c2[nH]c2ccccc12 (centres unmarked) [Compound 29, 1,1-[3-(Dimethylamino-(thiophen-2-yl)-methyl)-pentamethylene]-1,3,4,9-tetrahydro-pyrano[3,4-b]indole] | 99% | 7.82 | 45% |  |  | 73 (10) % |  |  | 
11 | CN(C)C(c1ccc(Cl)cc1)C1CCC2(CC1)OCCc1c2[nH]c2ccc(F)cc12 (centres unmarked) [Compound 38, 6-Fluoro-1,1-[3-(dimethylamino-(4-chlorophenyl)-methyl)-pentamethylene]-1,3,4,9-tetrahydropyrano[3,4-b]indole] | 84% | 6.59 | 57% | 59% |  |  |  |  | 
12 | CC1Cc2c([nH]c3ccc(F)cc23)C2(CCC(C(c3ccccc3)N(C)C)CC2)O1 (centres unmarked) [Compound 53, 6-Fluoro-3-methyl-1,1-[3-(dimethylamino-(phenyl)-methyl) -pentamethylene]-1,3,4,9-tetrahydropyrano[3,4-b]indole] | 97% | 7.09 | 60% | 47% |  |  |  |  | 
13 | CN(C)C(CCc1ccccc1)C1CCC2(CC1)NCCc1c2[nH]c2ccccc12 (centres unmarked) (as salt: citrate) [Compound 20, 1,1-[3-(Dimethylamino-(phenylethyl)-methyl)-pentamethylene]-3,4-dihydro-1H-2,9-diazafluorene Citrate] |  |  |  |  |  |  |  |  | 130 to 135 °C
14 | Cc1ccc2[nH]c3c(c2c1)CC(C)OC31CCC(C(c2ccc(Cl)cc2)N(C)C)CC1 (centres unmarked) [Compound 44, 3,6-Dimethyl-1,1-[3-(dimethylamino-(4-chlorophenyl)-methyl) -pentamethylene]-1,3,4,9-tetrahydropyrano[3,4-b]indole] | 72% | 6.31 |  |  |  | 48 (10) % |  |  | 
15 | CN(C)C(c1cccc(F)c1)C1CCC2(CC1)NCCc1c2[nH]c2ccccc12 (centres unmarked) [Compound 18, 1,1-[3-(Dimethylamino-(3-fluorophenyl)methyl)-pentamethylene]-3,4-dihydro-1H-2,9-diazafluorene] | 74% | 6.59 | 64% | 58% |  |  |  |  | 226 to 229 °C
16 | CN(C)C(c1ccccc1)C1CCC2(CC1)OCCc1c2[nH]c2ccccc12 (centres unmarked) [Compound 27, 1,1-[3-(Dimethylamino-(phenyl)-methyl)-pentamethylene]-1,3,4,9-tetrahydropyrano[3,4-b]indole Citrate] | 99% | 7.59 | 73% | 64% |  | 53 (10) % |  |  | 
17 | CN(C)C(CCc1ccccc1)C1CCC2(CC1)NCCc1c2[nH]c2ccccc12 (centres unmarked) [Compound 20, 1,1-[3-(Dimethylamino-(phenylethyl)-methyl)-pentamethylene]-3,4-dihydro-1H-2,9-diazafluorene Citrate] | 97% | 7.47 | 84% | 91% |  | 45 (10) % |  |  | 
